In patent US12049642B2, “Corneal endothelial cells with increased cell density and compositions thereof” (Astellas Institute for Regenerative Medicine, priority 2011, dated 2024):

Key:
hESC-derived CEC = test: Effect of ROCK inhibitor on harvested and replated hESC-derived CEC; format: cell-based, human; parameters: key to O/N Confluent: +: “O/N confluent” indicates the confluence of cultured cells after overnight plating, reflecting the degree of cell survival and/or attachment.; −: “O/N confluent” indicates the confluence of cultured cells after overnight plating, reflecting the degree of cell survival and/or attachment; key to Morphology: a high quality polygonal/hexagonal cell shape (“++”); a polygonal/hexagonal shape (“+”); fibroblastic morphology (“−”); key to COL8A1 mRNA / AQP1 mRNA / SLC16A3 mRNA: expression (“+”); non-expression (“−”)
Procedure: Expression of COL8A1 and SLC16A3 were elevated relative to hESC (FIGS. 17E-17F).
The harvested cells were further examined for morphology, ability to reestablished a confluent culture, and retaining expression of the CEC markers COL8A1, AQP1, and SLC16A by qPCR. […] Moreover, Maintenance with media containing ROCK inhibitor can help the cells maintain a high quality CEC morphology after harvesting and replating.
Rock inhibitor […] (Wako, cat #253-00513) was dissolved in distilled H2O to make a 10 mM stock solution and sterile filtered and aliquoted. Rock inhibitor aliquot was thawed and added fresh to media daily.
Cornea cells were grown as described in Example 2 and harvested by treatment with 0.25% Trypsin as described in Example 4 and replated, with variations (i.e., inclusion of ROCK inhibitor and/or ASC as described below).
After plating, cells were viewed to identify any morphological changes, and specifically whether they regained their polygonal/hexagonal shape, were a mixed population of polygonal and fibroblastic shape, or if they had turned fibroblastic.
Media was changed daily with fresh Rock inhibitor except for “Pretreatment” and “D1” paradigms. After 1 week of culture, RNA was collected and analyzed by QPCR for changes in COL8A1, AQP1, and SLC16A3 mRNA levels. The efficacy of the Rock inhibitor for harvesting cells were tested between 1-20 microM.
For the “Pretreatment” paradigm, CEC were produced as described in Example 2. The cornea media was removed and replaced with either 10 microM Rock or 10 microM Rock with 0.3 mM ASC-P2 (L ascorbic acid phosphate magnesium salt n-hydrate (Wako, cat #013-19641)) for 1 hour before harvesting. Cells were harvested using 0.25% trypsin as described above, however, no Rock inhibitor was added during harvesting.
For the “Rock overnight” paradigm, CEC were produced as described in Example 2, harvested with 0.25% trypsin as described above, and then plated overnight in the presence of 10 microM Rock inhibitor. The following morning, the media was removed, and no further Rock inhibitor was added to the media.
For the “Rock maintenance” paradigm, CEC were produced as described in Example 2, harvested using 0.25% trypsin as described above, and were maintained in Rock inhibitor added daily to fresh media.
For the “D1” paradigm, CEC were produced as described in Example 2, harvested using 0.25% trypsin as described above, and cultured in presence of Rock inhibitor for 1 week. Cornea cells were then grown for additional week in the presence or absence of Rock inhibitor, to determine whether the ROCK inhibitor contributed to the maintenance of their morphology.

CEC = test: ANGPL7 included in culture media during CEC differentiation; format: cell-based, human; conditions: in culture media in combination with DKK2 and PDGFB; methods of Example 1
Source text: Accordingly, ANGPL7 may optionally be used in the differentiation of corneal endothelial cells, for example by its inclusion in the culture during and/or after formation of corneal endothelial cells. ANGPL1-8 may be used in place of or in addition to ANGPL7.

[1] = D1: factors in media for the first week after plating, thereafter omitted

## C[C@@H](N)[C@H]1CC[C@H](C(=O)Nc2ccncc2)CC1 [Rock, (1R,4r)-4-((R)-1-aminoethyl)-N-(pyridin-4-yl)cyclohexanecarboxamide]
hESC-derived CEC; 1 μM Rock inhibitor, FIG. 17A
  morphology of the hESC CEC trypsinized and replated: variable
hESC-derived CEC; 5 μM Rock inhibitor, FIG. 17B
  morphology of the hESC CEC trypsinized and replated: somewhat more uniform
hESC-derived CEC; 10 μM Rock inhibitor, FIG. 17C
  morphology of the hESC CEC trypsinized and replated: uniform and polygonal/hexagonal
hESC-derived CEC; 20 μM Rock inhibitor, FIG. 17D
  morphology of the hESC CEC trypsinized and replated: uniform and polygonal/hexagonal
hESC-derived CEC; 20 μM Rock inhibitor, QPCR
  SLC16A3 expression compared to PD1T that has not been harvested: unchanged
hESC-derived CEC; 1-10 μM Rock inhibitor, QPCR
  SLC16A3 expression compared to PD1T that has not been harvested: upregulated
hESC-derived CEC; 1 microM (maint.), in media each day after plating
  O/N Confluent: +
hESC-derived CEC; 1 microM (maint.), QPCR
  AQP1 mRNA: +
  COL8A1 mRNA: +
  SLC16A3 mRNA: +
hESC-derived CEC; 1 microM (maint.), after 1 week in culture
  Morphology: +
hESC-derived CEC; 5 microM (maint.)
  O/N Confluent: +
hESC-derived CEC; 5 microM (maint.), QPCR
  AQP1 mRNA: +
  COL8A1 mRNA: +
  SLC16A3 mRNA: +
hESC-derived CEC; 5 microM (maint.), after 1 week in culture
  Morphology: ++
hESC-derived CEC; 10 microM (maint.), ASC 0.3 mM where added
  O/N Confluent: +
hESC-derived CEC; 10 microM (maint.), QPCR
  AQP1 mRNA: +
  COL8A1 mRNA: +
  SLC16A3 mRNA: +
hESC-derived CEC; 10 microM (maint.), after 1 week in culture
  Morphology: ++
hESC-derived CEC; 20 microM (maint.), ASC 0.3 mM where added
  O/N Confluent: +
hESC-derived CEC; 20 microM (maint.), QPCR
  AQP1 mRNA: +
  COL8A1 mRNA: +
  SLC16A3 mRNA: +
hESC-derived CEC; 20 microM (maint.), after 1 week in culture
  Morphology: ++
hESC-derived CEC; [1]
  Morphology: −
  O/N Confluent: +
hESC-derived CEC; Pretreat: 10 microM Rock 1 hour before harvesting with 0.25% trypsin, ASC 0.3 mM where added
  O/N Confluent: −
hESC-derived CEC; Pretreat: 10 microM Rock 1 hour before harvesting, after 1 week in culture
  Morphology: −
hESC-derived CEC; Pretreat, QPCR after 1 week
  AQP1 mRNA: +
  COL8A1 mRNA: +
  SLC16A3 mRNA: +
hESC-derived CEC; QPCR, FIG. 17E
  COL8A1 expression compared to PD1T that has not been harvested: relatively unchanged
hESC-derived CEC; concentrations up to 20 micromolar, FIGS. 17A-17D
  cell uniformity and polygonal/hexagonal morphology: dose-responsive improvement
hESC-derived CEC; o/n: plated overnight with 10 microM Rock after harvest, ASC 0.3 mM where added
  O/N Confluent: +
hESC-derived CEC; o/n: plated overnight with 10 microM Rock, after 1 week in culture
  Morphology: +
hESC-derived CEC; o/n, QPCR after 1 week
  AQP1 mRNA: +
  COL8A1 mRNA: +
  SLC16A3 mRNA: +

B1: ANGPL7: Angiopoietin-Like Protein 7, included in the culture media with DKK2 and PDGFB (protein, UniProt O43827 27-346, looked up)
Angiopoietin-related protein 7: QKLSKHKTPAQPQLKAANCCEEVKELKAQVANLSSLLSELNKKQERDWVSVVMQVMELESNSKRMESRLTDAESKYSEMNNQIDIMQLQAAQTVTQTSADAIYDCSSLYQKNYRISGVYKLPPDDFLGSPELEVFCDMETSGGGWTIIQRRKSGLVSFYRDWKQYKQGFGSIRGDFWLGNEHIHRLSRQPTRLRVEMEDWEGNLRYAEYSHFVLGNELNSYRLFLGNYTGNVGNDALQYHNNTAFSTKDKDNDNCLDKCAQLRKGGYWYNCCTDSNLNGVYYRLGEHNKHLDGITWYGWHGSTYSLKRVEMKIRPEDFKP
CEC
  packing and morphology of the resulting CEC: tighter packing and more hexagonal morphology
